Results on eight compounds are retold here after ChEMBL document CHEMBL1123821, “Synthesis of 5-chloro-5,8-dideaza analogues of folic acid and aminopterin targeted for colon adenocarcinoma” (J Med Chem, 1987).

Broadly, the IC50 is the concentration that gives 50% inhibition. Read a high IC50 as weaker potency.

Common to all, as to type: functional, cell-based
The subject of one test is HT-29. Description: Inhibition of cell growth against HT-29 human gastrointestinal adenocarcinoma cell lines in vitro.
For the next test, the system named is HuTu80. Description: Inhibition of cell growth against HuTu 80 human gastrointestinal adenocarcinoma cell lines in vitro.
In the next test the test system is SW480. In words: Inhibition of cell growth against SW480 human gastrointestinal adenocarcinoma cell lines in vitro.
The next test relates to WiDr. Description: Inhibition of cell growth against WIDR human gastrointestinal adenocarcinoma cell lines in vitro.

Turning to `Nc1nc(N)c2c(Cl)c(NCc3ccc(C(=O)NC(CCC(=O)O)C(=O)O)cc3)ccc2n1` (stereo unspecified), the IC50 amounted to 25 nM in the test with HT-29, 22 nM in the test with HuTu80, 20 nM in the test with SW480 and 24 nM with WiDr.
As for `Nc1nc(O)c2c(Cl)c(NCc3ccc(C(=O)NC(CCC(=O)O)C(=O)O)cc3)ccc2n1` (stereo unspecified), the IC50 in the test on HT-29 is 6700 nM; in the test on HuTu80 it was 8500 nM; in the test with SW480, 38000 nM; in the test with WiDr, 11000 nM.
In turn, `CN(Cc1cnc2nc(N)nc(N)c2n1)c1ccc(C(=O)N[C@@H](CCC(=O)O)C(=O)O)cc1` [METHOTREXATE] returned an IC50 in the test on HuTu80 of 9 nM.
With `Cc1c(NCc2ccc(C(=O)NC(CCC(=O)O)C(=O)O)cc2)ccc2nc(N)nc(N)c12` (stereo unspecified), the IC50 with HT-29 was determined as 60 nM; in the test on HuTu80, 47 nM; in the test on SW480 it was 56 nM; in the test on WiDr it was 71 nM.
In turn, `Cc1c(NCc2ccc(C(=O)NC(CCC(=O)O)C(=O)O)cc2)ccc2nc(N)nc(O)c12` (stereo unspecified) had an IC50 in the test on HuTu80 of 4000 nM. This counts as single-digit micromolar.
Turning to `Nc1nc(N)c2c(Cl)c(CNc3ccc(C(=O)NC(CCC(=O)O)C(=O)O)cc3)ccc2n1` (stereo unspecified), the half-inhibitory concentration (IC50) came out at 2.3 nM in the test on HT-29, 1.9 nM with HuTu80, 2 nM with SW480 and 2.1 nM in the test on WiDr.
As to `Cc1c(CNc2ccc(C(=O)NC(CCC(=O)O)C(=O)O)cc2)ccc2nc(N)nc(N)c12` (stereo unspecified), the concentration for half-maximal inhibition (IC50) in the test on HT-29 stood at 3 nM; in the test on HuTu80, 3.4 nM; with SW480, 5 nM; in the test with WiDr, 5 nM.
On to `Nc1nc(=O)c2cc(NCc3ccc(C(=O)NC(CCC(=O)O)C(=O)O)cc3)ccc2[nH]1` (stereo unspecified), for which the IC50 turned out to be 1700 nM in the test with HT-29, 4500 nM in the test with HuTu80, 4500 nM with SW480 and 4200 nM in the test with WiDr.
